{"source": "paper PMC6411159", "about": "“Development of a high-throughput fluorescent no-wash sodium influx assay” (PLoS ONE, 2019)", "key": {"[1]": {"target": "T1, hNaV1.7 (Homo sapiens, UniProt Q15858)", "T1 construct": "host or cells: HEK293", "T1 sequence (Q15858 whole entry)": "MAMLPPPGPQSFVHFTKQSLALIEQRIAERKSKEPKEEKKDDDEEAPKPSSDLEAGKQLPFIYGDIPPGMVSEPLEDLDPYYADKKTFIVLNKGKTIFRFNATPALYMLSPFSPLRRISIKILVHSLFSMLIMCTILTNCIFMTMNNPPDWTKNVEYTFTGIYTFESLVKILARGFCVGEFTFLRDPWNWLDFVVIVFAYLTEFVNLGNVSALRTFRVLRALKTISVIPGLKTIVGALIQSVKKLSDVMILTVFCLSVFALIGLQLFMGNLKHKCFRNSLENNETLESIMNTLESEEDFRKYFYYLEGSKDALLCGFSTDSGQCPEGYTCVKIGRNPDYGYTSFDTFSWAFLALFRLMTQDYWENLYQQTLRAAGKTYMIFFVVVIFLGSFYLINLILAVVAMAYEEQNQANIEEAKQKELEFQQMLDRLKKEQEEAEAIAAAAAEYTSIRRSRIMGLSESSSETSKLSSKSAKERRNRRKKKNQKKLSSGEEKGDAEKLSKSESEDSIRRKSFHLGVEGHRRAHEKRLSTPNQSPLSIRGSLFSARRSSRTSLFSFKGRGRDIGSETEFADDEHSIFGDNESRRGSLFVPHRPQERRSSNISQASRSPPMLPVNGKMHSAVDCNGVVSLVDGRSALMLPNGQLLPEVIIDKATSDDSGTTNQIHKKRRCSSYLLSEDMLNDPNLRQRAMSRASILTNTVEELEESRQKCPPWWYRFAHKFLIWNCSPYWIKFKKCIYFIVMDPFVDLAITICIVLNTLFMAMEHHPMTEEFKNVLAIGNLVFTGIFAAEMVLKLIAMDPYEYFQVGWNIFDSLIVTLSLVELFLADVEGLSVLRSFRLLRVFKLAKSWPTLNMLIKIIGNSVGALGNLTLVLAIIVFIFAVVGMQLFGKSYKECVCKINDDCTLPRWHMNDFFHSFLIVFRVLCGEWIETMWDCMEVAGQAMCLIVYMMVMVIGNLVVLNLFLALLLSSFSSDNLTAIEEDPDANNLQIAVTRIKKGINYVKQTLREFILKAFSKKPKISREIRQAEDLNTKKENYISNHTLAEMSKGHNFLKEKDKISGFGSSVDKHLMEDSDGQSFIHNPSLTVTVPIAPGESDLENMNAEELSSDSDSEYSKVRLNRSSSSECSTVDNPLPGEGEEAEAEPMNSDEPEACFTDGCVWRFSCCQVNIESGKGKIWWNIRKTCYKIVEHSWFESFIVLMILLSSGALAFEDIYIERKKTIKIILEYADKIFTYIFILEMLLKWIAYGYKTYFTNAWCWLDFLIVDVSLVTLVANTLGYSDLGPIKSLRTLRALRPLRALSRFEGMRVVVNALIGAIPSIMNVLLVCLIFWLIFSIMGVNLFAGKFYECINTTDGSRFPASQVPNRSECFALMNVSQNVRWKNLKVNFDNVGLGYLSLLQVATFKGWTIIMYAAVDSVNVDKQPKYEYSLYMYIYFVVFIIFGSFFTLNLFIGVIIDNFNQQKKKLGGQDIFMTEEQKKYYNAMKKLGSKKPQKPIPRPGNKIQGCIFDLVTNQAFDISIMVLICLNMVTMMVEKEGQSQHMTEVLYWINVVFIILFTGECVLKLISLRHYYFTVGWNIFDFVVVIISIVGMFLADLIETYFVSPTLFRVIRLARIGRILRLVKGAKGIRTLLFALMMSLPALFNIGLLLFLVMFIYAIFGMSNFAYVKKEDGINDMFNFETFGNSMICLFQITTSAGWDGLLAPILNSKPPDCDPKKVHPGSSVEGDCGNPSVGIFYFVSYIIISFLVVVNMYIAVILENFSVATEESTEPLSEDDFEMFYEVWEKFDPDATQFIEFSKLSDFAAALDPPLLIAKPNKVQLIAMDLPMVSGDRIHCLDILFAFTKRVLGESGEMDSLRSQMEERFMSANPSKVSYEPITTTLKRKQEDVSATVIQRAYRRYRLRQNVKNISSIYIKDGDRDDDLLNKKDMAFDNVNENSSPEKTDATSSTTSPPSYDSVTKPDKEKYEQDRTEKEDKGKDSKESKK", "type": "cell-based", "method": "(§1) HEK293 cells heterologously expressing human NaV1.1–1.8 (SB Drug Discovery, Glasgow, UK) were cultured in Minimum Essential Medium (MEM) (Sigma Aldrich #M5650) containing 10% v/v fetal bovine serum (FBS) and selection antibiotics as recommended by the manufacturer. SH-SY5Y human neuroblastoma cells (Victor Diaz, Goettingen, Germany) were cultured in Roswell Park Memorial Institute (RPMI) medium containing 15% v/v FBS and supplemented with L-glutamine (1 mM). […] Cells were grown in a humidified 5% CO2 incubator at 37°C, grown to 70–80% confluence, and passaged every 3–4 days using TrypLE Express (Invitrogen) or trypsin (0.25%).\n(§2) Data were plotted and analyzed using GraphPad Prism, version 6.0. For concentration-response curves, a four-parameter Hill equation with variable Hill coefficient was fitted to the data. Statistical significance was defined as P < 0.05 and was determined by an unpaired t-test assuming equal variance or one-way ANOVA with Dunnett’s post-test as indicated. Data are presented as mean±SEM."}, "[2]": {"assay": "octanol-water partition of quencher dyes", "type": "physicochemical", "settings": "1 mM in 1:1 octanol/water, settled overnight", "method": "Supplementary file pone.0213751.s002.pdf: S2 Fig Octanol-water partition of quencher dyes. Quenchers were added to 1:1 octanol/water volume to a 1mM concentration. Tubes were agitated and allowed to settle overnight. […] (PDF) Click here for additional data file."}, "[3]": {"assay": "absorbance spectra (UV-Vis spectrophotometry)", "type": "physicochemical", "settings": "diluted in water, NanoDrop ND1000", "method": "Quencher dyes Allura Red AC, Amaranth, Carmine, Brilliant Black BN (Sigma Aldrich), and Ponceau 4R (pillar box red food dye) (Queen Australia) were diluted in water to the maximum concentration required to be within detection range (250–1000 μM). Their absorbance spectra were measured with a NanoDrop^TM ND1000 (ThermoFisher Scientific) UV-Vis spectrophotometer and plotted vs UV-Vis spectrum wavelength using GraphPad Prism 6.0."}, "[4]": {"system": "adenosine receptors", "set-up": "method as in PMID 20086038", "settings": "cited from earlier work"}, "[5]": {"target": "T2, TRPV4 (Homo sapiens, UniProt Q9HBA0)", "T2 construct": "endogenous in cells", "T2 sequence (Q9HBA0 whole entry)": "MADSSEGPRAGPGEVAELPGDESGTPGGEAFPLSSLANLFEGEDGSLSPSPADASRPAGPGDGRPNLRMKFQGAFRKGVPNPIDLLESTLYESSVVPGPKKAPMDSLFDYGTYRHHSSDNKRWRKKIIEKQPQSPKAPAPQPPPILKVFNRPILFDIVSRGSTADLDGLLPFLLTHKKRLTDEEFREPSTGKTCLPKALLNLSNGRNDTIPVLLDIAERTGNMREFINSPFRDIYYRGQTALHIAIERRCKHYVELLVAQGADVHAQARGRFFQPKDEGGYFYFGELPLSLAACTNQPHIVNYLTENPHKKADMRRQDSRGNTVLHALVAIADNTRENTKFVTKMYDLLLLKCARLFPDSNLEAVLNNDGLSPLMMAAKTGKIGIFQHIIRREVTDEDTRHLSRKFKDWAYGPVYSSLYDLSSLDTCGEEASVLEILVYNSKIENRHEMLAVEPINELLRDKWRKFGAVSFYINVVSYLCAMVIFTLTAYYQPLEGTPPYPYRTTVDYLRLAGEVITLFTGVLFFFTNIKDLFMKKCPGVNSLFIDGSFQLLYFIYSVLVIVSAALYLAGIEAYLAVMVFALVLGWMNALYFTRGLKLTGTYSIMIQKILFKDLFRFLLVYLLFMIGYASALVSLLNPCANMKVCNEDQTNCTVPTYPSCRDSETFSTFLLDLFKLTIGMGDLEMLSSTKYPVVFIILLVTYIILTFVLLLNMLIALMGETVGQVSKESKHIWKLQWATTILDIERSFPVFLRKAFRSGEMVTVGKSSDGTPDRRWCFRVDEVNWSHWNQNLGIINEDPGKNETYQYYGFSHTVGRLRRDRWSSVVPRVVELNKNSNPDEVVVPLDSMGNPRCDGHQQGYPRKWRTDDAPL", "assay": "FLIPR calcium dye assay in MDA-MB-468 breast cancer cells", "type": "cell-based", "settings": "MDA-MB-468 cells, read-out: EC50 (increase in intracellular calcium)", "method": "FLIPR Calcium 4 no-wash dye (Molecular Devices) and BD Calcium Assay (BD Biosciences) kits were diluted in physiological salt solution as per manufacturers instructions. […] Raw fluorescence readings were converted to response over baseline using the analysis tool of Screenworks 3.1.1.4 (Molecular Devices) and were expressed relative to the maximum increase in fluorescence of control responses following 5 min incubation of compounds."}, "[6]": {"target": "T3, human NaV1.7 (Homo sapiens, UniProt Q15858)", "T3 construct": "host or cells: HEK293", "T3 sequence (Q15858 whole entry)": "as the sequence (Q15858 whole entry) above", "assay": "automated whole-cell patch-clamp electrophysiology (QPatch-16)", "type": "cell-based", "settings": "Ponceau 4R 1 mM", "method": "Automated whole-cell patch-clamp recordings were performed on HEK293 cells heterologously expressing human NaV1.7 (SB Drug Discovery, Glasgow, UK) using a QPatch-16 automated electrophysiology platform (Sophion Bioscience, Ballerup, Denmark) as previously described. The extracellular solution consisted of (in mM): NaCl 70, Choline chloride 70, KCl 4, CaCl2 2, MgCl2 1, HEPES 10 and glucose 10; pH 7.4; osmolarity 305 mOsm. The intracellular solution consisted of (in mM): CsF 140, EGTA/CsOH 1/5, HEPES 10 and NaCl 10; pH 7.3 with CsOH; osmolarity 320 mOsm. Ponceau 4R (1 mM) was diluted in extracellular solution and incubated for 5 min before running the voltage protocol and compared to time-matched buffer controls. Patch clamp experiments were conducted at room temperature.\nI-V curves were obtained with the membrane potential held at –90 mV and a series of 500 ms step pulses that ranged from –110 to +55 mV in 5-mV increments. Conductance-voltage curves were calculated using the equation G = I/(V–Vrev), where G is conductance, I is peak current and Vrev is the reversal potential. Steady-state fast inactivation was tested using a two-pulse protocol, with 500 ms step pre-pulses (as above) preceding a 10 ms pulse of –20 mV (repetition interval 6000 ms). Both steady-state activation and inactivation curves were fitted using Boltzmann function."}, "[7]": {"system": "NaV1.1–1.8", "assay": "no-wash sodium influx assay, summary over subtypes", "type": "cell-based, human", "settings": "ANG-2 + Ponceau 4R 1 mM; stimulation with veratridine (NaV1.1–1.7) or deltamethrin (NaV1.8); read-out: IC50 range over NaV1.1–1.8", "text": "(§3) […]. […] Data are presented as mean±SEM."}, "[8]": {"target": "T4, hNaV1.8 (Homo sapiens, UniProt Q9Y5Y9)", "T4 construct": "host or cells: HEK293", "T4 sequence (Q9Y5Y9 whole entry)": "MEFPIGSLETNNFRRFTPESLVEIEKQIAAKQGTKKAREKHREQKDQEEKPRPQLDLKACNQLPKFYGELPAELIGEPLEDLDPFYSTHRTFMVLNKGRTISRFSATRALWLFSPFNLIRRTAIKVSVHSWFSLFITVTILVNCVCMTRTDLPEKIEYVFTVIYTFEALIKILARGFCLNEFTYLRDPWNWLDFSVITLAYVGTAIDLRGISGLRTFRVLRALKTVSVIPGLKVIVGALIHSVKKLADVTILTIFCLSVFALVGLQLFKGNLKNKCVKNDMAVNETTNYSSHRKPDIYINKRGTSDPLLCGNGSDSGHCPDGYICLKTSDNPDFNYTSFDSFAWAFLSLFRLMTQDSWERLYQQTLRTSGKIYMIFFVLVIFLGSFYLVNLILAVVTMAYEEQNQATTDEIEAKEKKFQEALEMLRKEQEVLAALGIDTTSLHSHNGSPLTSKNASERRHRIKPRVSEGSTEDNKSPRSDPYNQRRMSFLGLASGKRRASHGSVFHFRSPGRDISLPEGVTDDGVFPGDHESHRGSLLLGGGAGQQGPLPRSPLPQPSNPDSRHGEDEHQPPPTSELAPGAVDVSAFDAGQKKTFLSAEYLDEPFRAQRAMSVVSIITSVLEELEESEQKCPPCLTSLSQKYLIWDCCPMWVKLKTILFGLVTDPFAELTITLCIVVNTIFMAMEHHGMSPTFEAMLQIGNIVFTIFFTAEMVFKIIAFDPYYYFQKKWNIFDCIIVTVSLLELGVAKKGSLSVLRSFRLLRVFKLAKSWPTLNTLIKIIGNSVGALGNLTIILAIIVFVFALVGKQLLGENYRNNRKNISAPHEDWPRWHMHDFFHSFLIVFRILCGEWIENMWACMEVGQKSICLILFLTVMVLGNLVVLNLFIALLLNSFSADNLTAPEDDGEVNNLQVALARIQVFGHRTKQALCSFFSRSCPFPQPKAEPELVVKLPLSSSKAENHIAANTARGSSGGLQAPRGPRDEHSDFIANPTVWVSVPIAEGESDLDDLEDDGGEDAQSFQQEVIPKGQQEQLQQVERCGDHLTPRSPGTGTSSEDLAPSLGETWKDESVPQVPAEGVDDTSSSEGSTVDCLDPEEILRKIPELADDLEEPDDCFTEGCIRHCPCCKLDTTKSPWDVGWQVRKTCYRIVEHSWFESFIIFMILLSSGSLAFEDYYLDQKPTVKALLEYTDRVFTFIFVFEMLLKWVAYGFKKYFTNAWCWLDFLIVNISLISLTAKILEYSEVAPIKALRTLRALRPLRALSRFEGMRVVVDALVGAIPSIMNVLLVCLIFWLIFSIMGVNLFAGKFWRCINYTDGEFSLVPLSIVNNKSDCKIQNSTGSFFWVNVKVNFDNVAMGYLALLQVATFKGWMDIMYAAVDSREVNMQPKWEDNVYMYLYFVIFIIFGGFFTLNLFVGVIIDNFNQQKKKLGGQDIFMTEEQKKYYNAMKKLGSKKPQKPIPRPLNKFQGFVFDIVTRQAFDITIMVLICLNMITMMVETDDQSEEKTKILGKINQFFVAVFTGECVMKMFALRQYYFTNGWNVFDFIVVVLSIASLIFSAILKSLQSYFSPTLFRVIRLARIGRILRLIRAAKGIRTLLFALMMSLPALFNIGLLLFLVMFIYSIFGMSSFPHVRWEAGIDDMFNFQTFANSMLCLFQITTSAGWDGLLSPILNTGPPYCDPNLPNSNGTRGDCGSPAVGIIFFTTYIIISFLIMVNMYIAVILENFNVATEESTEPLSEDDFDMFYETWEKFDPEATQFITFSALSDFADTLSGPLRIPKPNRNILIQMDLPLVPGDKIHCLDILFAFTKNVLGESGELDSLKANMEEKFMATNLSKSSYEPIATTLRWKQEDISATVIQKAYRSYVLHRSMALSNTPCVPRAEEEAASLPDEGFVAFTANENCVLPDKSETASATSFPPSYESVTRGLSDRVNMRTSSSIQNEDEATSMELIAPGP", "assay": "no-wash sodium influx assay (ANG-2 with quencher Ponceau 4R), FLIPR", "type": "cell-based", "text": "as §3"}, "[9]": {"target": "T5, hNaV1.4 (Homo sapiens, UniProt P35499)", "T5 construct": "host or cells: HEK293", "assay": "no-wash sodium influx assay (ANG-2 with quencher Ponceau 4R), FLIPR", "type": "cell-based", "settings": "hNaV1.4, response to veratridine 60 μM; read-out: IC50 (reduction of fluorescence response)", "text": "as §3"}, "[10]": {"target": "T6, hNaV1.1 (Homo sapiens, UniProt P35498)", "T6 construct": "host or cells: HEK293", "assay": "no-wash sodium influx assay (ANG-2 with quencher Ponceau 4R), FLIPR", "type": "cell-based", "text": "as §3"}, "[11]": {"target": "hNaV1.2 (Homo sapiens, UniProt Q99250)", "assay": "cell-based", "method": "as §1, §2"}, "[12]": {"system": "NaV1.1–1.7", "settings": "read-out: EC50 range over NaV1.1–1.7; ANG-2 + Ponceau 4R 1 mM", "method": "as §1, §2"}, "[13]": {"system": "NaV1.8", "set-up": "method as in PMID 14769548", "settings": "cited from earlier work"}, "[14]": {"settings": "5 min, vs time-matched buffer control"}}, "note": "Read-outs that look alike come from different tables or passages of the source."}
{"smiles": "Cc1c(C(=O)O)c(O)cc2c1C(=O)c1c(O)c(C3O[C@H](CO)[C@@H](O)[C@H](O)[C@H]3O)c(O)c(O)c1C2=O", "note": "(stereo in doubt) [Carmine]", "values": [{"measurement": "veratridine-induced fluorescence signal in presence of quencher", "setting": "[1]", "value": "comparatively low signal"}, {"measurement": "octanol-water partition", "setting": "[2]", "value": "partitioned into the octanol phase"}]}
{"smiles": "COc1cc(S(=O)(=O)[O-])c(C)cc1N=Nc1c(O)ccc2cc(S(=O)(=O)[O-])ccc12.[Na+].[Na+]", "note": "[Allura Red, Allura Red AC]", "values": [{"measurement": "octanol-water partition", "setting": "[2]", "value": "partitioned into the octanol phase"}]}
{"smiles": "CC(=O)Nc1ccc(S(=O)(=O)[O-])c2cc(S(=O)(=O)[O-])c(N=Nc3ccc(N=Nc4ccc(S(=O)(=O)[O-])cc4)c4ccc(S(=O)(=O)[O-])cc34)c(O)c12.[Na+].[Na+].[Na+].[Na+]", "note": "[Brilliant Black BN]", "values": [{"measurement": "peak absorption (λ max)", "setting": "[3]", "value": 575, "unit": "nm"}, {"measurement": "action on adenosine receptors", "setting": "[4]", "value": "allosteric modulator"}]}
{"smiles": "CC(C)C[C@H](NC(=O)c1cc2ccccc2s1)C(=O)N1CCN(C(=O)[C@H](CO)NS(=O)(=O)c2ccc(Cl)cc2Cl)CC1", "note": "[GSK1016790A]", "values": [{"measurement": "EC50", "setting": "[5]; BD Calcium Assay Kit", "value": 0.04, "unit": "µM"}, {"measurement": "EC50", "setting": "[5]; FLIPR Calcium 4 no-wash dye", "value": 0.08, "unit": "µM"}, {"measurement": "EC50", "setting": "[5]; fluo-4 with Allura Red 1 mM", "value": 0.064, "unit": "µM"}, {"measurement": "EC50", "setting": "[5]; fluo-4 with Amaranth 1 mM", "value": 0.07, "unit": "µM"}, {"measurement": "EC50", "setting": "[5]; fluo-4 with Brilliant Black BN 1 mM", "value": 0.072, "unit": "µM"}, {"measurement": "EC50", "setting": "[5]; fluo-4 with Ponceau 4R 1 mM", "value": 0.074, "unit": "µM"}, {"measurement": "EC50", "setting": "[5]; fluo-4 with wash", "value": 0.047, "unit": "µM"}]}
{"smiles": "O=S(=O)([O-])c1cc(S(=O)(=O)[O-])c2c(N=Nc3ccc(S(=O)(=O)[O-])c4ccccc34)c(O)ccc2c1.[Na+].[Na+].[Na+]", "note": "[Ponceau 4R]", "values": [{"measurement": "effect on activation or inactivation kinetics of NaV1.7", "setting": "[6]", "value": "no effect"}, {"measurement": "shift in the I-V curve or effect on current size", "setting": "[6]", "value": "did not cause a shift in the I-V curve or affect the current size"}, {"measurement": "shift in voltage-dependence of activation (V1/2 activation Δ)", "setting": "[6]; [14]", "value": "–0.96 mV"}, {"measurement": "shift in voltage-dependence of steady-state fast inactivation (V1/2 inactivation Δ)", "setting": "[6]; [14]", "value": "–1.46 mV"}]}
{"smiles": "CCCCNc1ccc(C(=O)OCCN(C)C)cc1", "note": "[tetracaine]", "values": [{"measurement": "IC50", "setting": "[7]", "value": "6 to 66", "unit": "µM"}, {"measurement": "IC50", "setting": "[8]; Tetracaine pIC50, hNaV1.8, 5 min pre-incubation, then deltamethrin 150 μM", "value": 6.61, "unit": "µM"}, {"measurement": "IC50", "setting": "[8]; hNaV1.8, response to deltamethrin 150 μM, read-out: IC50 (reduction of fluorescence response)", "value": 6, "unit": "µM"}, {"measurement": "IC50", "setting": "[9]", "value": 13, "unit": "µM"}, {"measurement": "IC50", "setting": "[10]; hNaV1.1, response to veratridine 60 μM, read-out: IC50 (reduction of fluorescence response)", "value": 52, "unit": "µM"}]}
{"smiles": "COc1ccc(C(=O)O[C@H]2CC[C@@]3(C)[C@@H]4CC[C@H]5[C@]6(O)C[C@H](O)[C@@]7(O)[C@@H](CN8C[C@@H](C)CC[C@H]8[C@@]7(C)O)[C@]6(O)C[C@@]53O[C@]24O)cc1OC", "note": "[veratridine]", "values": [{"measurement": "EC50", "setting": "[11]; EC50 (increase in fluorescence), hNaV1.2, ANG-2 + Ponceau 4R", "value": 16, "unit": "µM"}, {"measurement": "EC50", "setting": "[11]; Veratridine pEC50, HEK293 hNaV1.2, ANG-2 + Ponceau 4R 1 mM, AUC 5 min", "value": 16.6, "unit": "µM"}, {"measurement": "EC50", "setting": "[12]", "value": "10 to 29", "unit": "µM"}, {"measurement": "effect on NaV1.8 in fluorescence-based assays", "setting": "[13]", "value": "little effect"}, {"measurement": "EC50", "setting": "[10]; EC50 (increase in fluorescence), hNaV1.1, ANG-2 + Ponceau 4R", "value": 21, "unit": "µM"}, {"measurement": "EC50", "setting": "[10]; Veratridine pEC50, HEK293 hNaV1.1, ANG-2 + Ponceau 4R 1 mM, AUC 5 min", "value": 21.9, "unit": "µM"}]}
